Results as given in patent US20060293390A1 (priority 2003, published 2006).
Where “and” joins values, the source holds several entries; their conditions need not be identical. Equal entries are not always repeated.

Legend:
[1] = Resorption of orally administered Diflunisal: concentration in blood / interstitial milieu; assay type: in vivo
[2] = test system: bladder cancer cell line RT112; assay: Apoptosis: cytoplasmic histone-associated DNA fragments, photometric enzyme immunoassay (FIG. 1); assay type: cell-based, human
Description: FIG. 1: FIG. 1 is a representation of apoptosis measurements with a bladder cancer cell line RT112. […] Besides the control measurements without Diflunisal, there is also a “positive” control (CAM) registered with a defined calibrated system. Apoptosis was measured by determination of cytoplasmic histone-associated DNA fragments (mono- and oligonucleosomes) after induced cell death. The qualitative and quantitative in vitro determination of apoptosis in RT112 tumor cells was analyzed with a photometric enzyme immunoassay. In brief, RT112 cells were harvested, washed twice and resuspended in culture media to yield a density of 2.5×10^5/ml. 100 μl/well of the RT112 cell suspension were seeded into 96 well microtiter plates (obtainable from BECTON DICKINSON) and incubated overnight at 37° C. and 5% CO2. The supernatant was replaced by 90 μl pH-adjusted culture medium alone (control). Again, the cells were incubated for various time periods at 37° C. and 5% CO2. Supernatants of the cell cultures were discarded and RT112 cells were lysed in lysis buffer for 30 minutes at RT (25° C.). The cytoplasmic fractions were transferred into a streptavidin-coated microtiter plate, and the working procedure for the ELISA was performed according to the manufacturer's instructions (the ELISA test was obtained from BOEHRINGER […], Germany). […] But there is also a superimposed part of the third level.

[3] = test system: leukemia cell line K-562; assay: Pore formation: PI-stained dead cells by flow cytometry (FIG. 2); assay type: cell-based, human
Description: FIG. 2: FIG. 2 is a representation of pore formation under conditions of interstitial albumin concentration of 0.2 mM. […] The dead cell fraction compared to the total cell number is measured in a flow cytometer. The experiments were conducted with the leukemia cell line K-562. […] Of minor interest is the second pore formation process starting at pH 6.4, because this process functions beyond the acidity milieu of most tumors. […] Pore formation was measured by determination of the necrotic cells measured by flow cytometry. Cultures of the leukemia cell line K-562 were harvested, and 5×10^5 cells were added into 6 ml tubes (BD). After centrifugation (250×g; 5 min; room temperature (25° C.)) the cells were resuspended in 900 μl pH-adjusted culture medium (pH 6.0-7.4; RPMI 1640 without NaHCO3; available from SIGMA). Then test substances were added to the samples and cells were incubated in a final volume of 1 ml at 37° C. in a water bath. After the incubation period the pH of the samples was measured, and the cells were washed and resuspended in 300 μl FACS medium (PBS+2% FCS and 0.1% NaN3). Cells were stained with propidium iodide (PI; available form SIGMA; 25 μl/25 μg/tube) for 15 minutes at RT (25° C.). Subsequently analysis of the stained cells was performed on an EPICS XL-MCL flow cytometer (available from COULTER, Krefeld, Germany), equipped with a 15 mW argon laser at an excitation wavelength of 488 nm. PI fluorescence was measured in the red channel (FL3; 620 nm longpass filter). Data acquisition and analysis was performed using XL-System II software (available from the company COULTER). It can be seen that Diflunisal causes pH-dependent pore formation in cancer cells.

[4] = test system: RT112 cells; assay: Respiration: mitochondrial activity, XTT assay (FIG. 4); assay type: cell-based, human
Description: This behavior reflects the apoptosis induction from the second affinity level of albumin. Increasing the concentrations higher than 1.0 mM also the whole respiration activity within the pH range 7.0-7.4 is diminished and falls to 0 at 1.5 mM. The same is true with concentrations up to 2.0 mM. This effect is introduced by apoptosis at pH 7.0-7.4, accelerated by the third and fourth affinity level of albumin. […] The mitochondrial activity of RT112 was determined using a colorimetric assay (XTT assay). […] The mitochondrial succinate-tetrazolium reductase system cleaves the tetrazolium salt XTT to formazan. The amount of this dye is directly correlated to the number of metabolically active cells, as the enzyme system is only active in respirating and viable cells. For this purpose, RT112 cells were harvested, washed twice and resuspended in culture media to yield a density of 2.5×10^5/ml. 100 μl/well of the RT112 cell suspension were seeded into 96 well microtiter plates (BECTON DICKINSON (BD), Heidelberg, Germany) and incubated overnight at 37° C. and 5% CO2. The supernatant was replaced by 90 μl pH-adjusted culture medium (pH 6.0-7.4) and 10 μl of preferred substances or 100 μl/well pH-adjusted culture medium alone (control). The cells were incubated for various time periods at 37° C. and 5% CO2. Thereafter, cells were washed twice and reincubated in fresh pH-adjusted culture medium. After the incubation period, pH of each well was determined with highly sensitive microelectrodes before 50 μl XTT labeling mixture was added. The cells were further incubated for additional 4 h at 37° C. and 5% CO2. The spectrophotometric absorbance of the samples was measured using a microtiter plate (ELISA) reader ([…], Denkendorf, Germany) at a wavelength of […] (630 nm as reference). Data acquisition and analysis was performed using BioLinx 2.1 software ([…]).

[5] = test system: colon and colorectal cancer; details: cited from earlier work
[6] = test system: bladder cancer cell line RT112; assay: Lactate transport: enzymatic determination of lactate in supernatants (FIG. 3); assay type: cell-based, human
Description: There is plotted a control measurement which indicates lactate efflux in dependence of pH and without any Diflunisal influence. […] The lactate transport was measured by qualitative enzymatic determination of lactate in supernatants of RT112 cells at 340 nm. RT112 cells were harvested, washed twice and resuspended in culture media to yield a density of 2×10^5/ml. 500 μl/well of the RT112 cell suspension were seeded into 24 well microtiter plates (BD) and incubated overnight at 37° C. and 5% CO2. The supernatant was replaced by 450 μl pH-adjusted culture medium (pH 6.0-7.4) and 50 μl of the solution of preferred substances or 500 μl/well pH-adjusted culture medium alone (control). Again, the cells were incubated for 24 h at 37° C. and 5% CO2. The measurement of lactate in the supernatants at 340 nm (PERKIN-ELMER, Lambda 17. UV-VIS Spectrophotometer, Überlingen, Germany) was performed according to the manufacturer's instructions (SIGMA DIAGNOSTICS, Deisenhofen, Germany; Lactate: Quantitative, Enzymatic Determination of Lactate in Whole Blood at 340 nm (Procedure No. 826-UV)).

[7] = 1.0 mM Diflunisal, 0.06 mM albumin, third affinity level
[8] = 3 Diflunisal molecules bound to albumin, 0.17 mM albumin
[9] = 1.0 mM Diflunisal, 0.2 mM albumin
[10] = ratio 6:1 Diflunisal to albumin

## O=C(O)c1cc(-c2ccc(F)cc2F)ccc1O [Diflunisal, 5-(2,4-difluorophenyl)salicylic acid]
[1]; 100 mg/kg administered orally
  concentration in blood: ≤ 1000 µM
[1]; oral administration
  dose at which the saturation concentration is reached: 50 mg/kg
  saturation concentration in blood: 250 µg/mL
[1]; oral administration, converted from 250 μg/ml
  saturation concentration (resorption saturation): 1.00 mM and 1.0 mM
[1]; patient treatments, 1000 mg/day, Diflunisal to albumin ratio <2:1
  interstitial concentration: < 0.3 mM
[2]; [7]
  pH at which apoptosis ends: 7.4 pH
  pH at which apoptosis starts: 7.0 pH
[2]; 4 to 6 Diflunisal bound to albumin
  pH range in which apoptosis occurs: 6.0-7.2 pH
[2]; Diflunisal/albumin ratio 7-9, 0.17 mM albumin
  pH range in which apoptosis is achieved: 7.0-7.4 pH
[3]; 0.2 mM albumin
  starting pH of the second pore formation process: 6.4 pH
[3]; 1.25 mM to 1.5 mM Diflunisal, 0.2 mM albumin
  pH of pore formation, third affinity level of albumin: ≤ 7.0 pH
[3]; [8]
  pH at which pore formation happens: < 6.5 pH
[3]; FIG. 2, 0.2 mM albumin
  interstitial concentration from which pore formation starts in a therapy-relevant pH range: ≥ 1.25 mM
[3]; cancer cell suspensions, flow cytometer
  pH at which pore formation can be produced: < 7.0 pH
[3]; not shown in FIG. 2
  starting pH of a third transport system (fourth affinity level of albumin): 7.2-7.3 pH
[3]; pH<7.0
  interstitial Diflunisal concentration at which pore formation starts: about 0.7 mM
[4]; [9]
  pH at which deviation from normal respiration activity reaches its maximum: ~6.9 pH
  pH at which inhibition of respiration activity starts: ~7.2 pH
[4]; 1.5 mM Diflunisal (same up to 2.0 mM), 0.2 mM albumin
  respiration activity within pH range 7.0-7.4: 0
[4]; 7 to 9 Diflunisal to albumin
  pH range of the new respiration blockade effect: 7.0-7.4 pH
[4]; ratio 4:1 Diflunisal to albumin
  blockade of the respiration chain: significant increase in activity
[4]; [10]
  pH range in which the blockade effect declines to ineffectiveness: 6.9 to 7.2 pH
  pH up to which the respiration blockade reaches an optimum: ≤ 6.9 pH
[4]; three bound Diflunisal molecules per albumin
  blockade of the respiration chain: no substantial blockade
[5]; Life Science 70, 2001, 37-48
  active concentration of Diflunisal: suprapharmacological and intrinsically cytotoxic
[5]; patient treatments, 1000 mg/day
  cancer cell kill: no cancer cell kill takes place
[6]; [8]
  pH range of lactate antiport: 6.6-7.4 pH
[6]; FIG. 3, against control without Diflunisal
  pH range in which lactate efflux is remarkably enhanced: 6.0 to 7.2 pH
[6]; three Diflunisal bound to albumin, first affinity stage
  Diflunisal/lactate antiport: no antiport happens
